From ChEMBL document CHEMBL1201862, “PubChem BioAssay data set” (2004)
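A five-concentration, 48-hour dose response in 96-well plates underlies each endpoint, interpolated linearly between surrounding concentrations. GI50: concentration for 50% inhibition of growth.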 Active and inactive are the calls of the source. Rule as the data show it: active = GI50 up to about 1.1 µM and inactive = higher.

Key:
Test in all cases: NCI tumour cell line growth inhibition, 48 h
A549 = test system: A549
CCRF-CEM = test system: CCRF-CEM
DMS-273 = test system: DMS-273
EKVX = test system: EKVX
HCC 2998 = test system: HCC 2998
HCT-116 = test system: HCT-116
HOP-62 = test system: HOP-62
HT-29 = test system: HT-29
NCI-H460 = test system: NCI-H460
OVCAR-8 = test system: OVCAR-8
RXF 393 = test system: RXF 393
SF-295 = test system: SF-295
SK-OV-3 = test system: SK-OV-3
SN12C = test system: SN12C
SR = test system: SR
TK-10 = test system: TK-10
UO-31 = test system: UO-31
Hs-578T = test system: Hs-578T
NCI/ADR-RES = test system: NCI/ADR-RES

Compound	GI50 (A549)	GI50 (CCRF-CEM)	GI50 (DMS-273)	GI50 (EKVX)	GI50 (HCC 2998)	GI50 (HCT-116)	GI50 (HOP-62)	GI50 (HT-29)	GI50 (NCI-H460)	GI50 (OVCAR-8)	GI50 (RXF 393)	GI50 (SF-295)	GI50 (SK-OV-3)	GI50 (SN12C)	GI50 (SR)	GI50 (TK-10)	GI50 (UO-31)	GI50 (Hs-578T)	GI50 (NCI/ADR-RES)
CN(C)c1c([O-])c(=[N+](C)C)c1=O	> 100 µM (inactive)	> 100 µM (inactive)	> 100 µM (inactive)	> 100 µM (inactive)	> 100 µM (inactive)	> 100 µM (inactive)	> 100 µM (inactive)	> 100 µM (inactive)	> 100 µM (inactive)	> 100 µM (inactive)	> 100 µM (inactive)	> 100 µM (inactive)	> 100 µM (inactive)	> 100 µM (inactive)	> 100 µM (inactive)	> 100 µM (inactive)	> 100 µM (inactive)	–	–
COc1cc2cc(c1Cl)N(C)C(=O)C[C@H](OC(=O)[C@H](C)N(C)C(C)=O)[C@]1(C)O[C@H]1[C@H](C)[C@@H]1C[C@@](O)(NC(=O)O1)[C@H](OC)/C=C/C=C(/C)C2	0.0255 µM (active)	0.0159 µM (active)	0.01 µM (active)	0.355 µM (active)	0.0175 µM (active)	0.0143 µM (active)	0.0199 µM (active)	0.0164 µM (active)	0.0157 µM (active)	0.0218 µM (active)	0.0236 µM (active)	0.0174 µM (active)	0.0444 µM (active)	0.0203 µM (active)	0.0156 µM (active)	0.238 µM (active)	0.0944 µM (active)	0.0219 µM (active)	0.0975 µM (active)
COC1CC(OS(=O)(=O)c2ccc(C)cc2)C(OC(=O)c2ccccc2)C(C)O1 (stereo not drawn)	> 10 µM (inactive)	> 10 µM (inactive)	> 10 µM (inactive)	> 10 µM (inactive)	> 10 µM (inactive)	> 10 µM (inactive)	> 10 µM (inactive)	> 10 µM (inactive)	> 10 µM (inactive)	> 10 µM (inactive)	88.5 µM (inactive)	> 100 µM (inactive)	> 10 µM (inactive)	> 10 µM (inactive)	> 10 µM (inactive)	> 10 µM (inactive)	> 10 µM (inactive)	–	–
Cc1cc2c3ccccc3n(C)c2c2c1C(=O)c1ccccc1C2=O	21.3 µM (inactive)	5.18 µM (inactive)	19.4 µM (inactive)	24.3 µM (inactive)	18.3 µM (inactive)	14.8 µM (inactive)	20.4 µM (inactive)	24.9 µM (inactive)	–	19.2 µM (inactive)	–	13.6 µM (inactive)	22.2 µM (inactive)	19.2 µM (inactive)	6.24 µM (inactive)	32.5 µM (inactive)	10.5 µM (inactive)	–	–
